Assay results published in PubChem BioAssay (NCI).
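Results reflect a 48-hour exposure of cells in 96-well plates to compound at five concentrations. TGI denotes the concentration required for complete inhibition of growth.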

How the values were obtained:
Assay in all cases: NCI tumour cell line growth inhibition, 48 h
SF-268 CNS = test system: SF-268 CNS
LOX IMVI melanoma = test system: LOX IMVI melanoma
HT29 colon = test system: HT29 colon
U251 CNS = test system: U251 CNS
SNB-19 CNS = test system: SNB-19 CNS
DU-145 prostate = test system: DU-145 prostate
NCI-H226 lung = test system: NCI-H226 lung
NCI/ADR-RES ovarian = test system: NCI/ADR-RES ovarian
RXF 393 renal = test system: RXF 393 renal
HCT-15 colon = test system: HCT-15 colon
EKVX NSCLC = test system: EKVX NSCLC
UO-31 renal = test system: UO-31 renal
SR leukemia = test system: SR leukemia

| Structure (SMILES) | TGI (SF-268 CNS) [µM] | TGI (LOX IMVI melanoma) [µM] | TGI (HT29 colon) [µM] | TGI (U251 CNS) [µM] | TGI (SNB-19 CNS) [µM] | TGI (DU-145 prostate) [µM] | TGI (NCI-H226 lung) [µM] | TGI (NCI/ADR-RES ovarian) [µM] | TGI (RXF 393 renal) [µM] | TGI (HCT-15 colon) [µM] | TGI (EKVX NSCLC) [µM] | TGI (UO-31 renal) [µM] | TGI (SR leukemia) [µM] |
| --- | --- | --- | --- | --- | --- | --- | --- | --- | --- | --- | --- | --- | --- |
| c1ccc(Nc2nnc(-c3ccccc3Nc3ccccc3-c3nnc(Nc4ccccc4)s3)s2)cc1 | > 100 | > 100 | > 100 | > 100 | > 100 | > 100 | > 100 | > 100 | > 100 | > 100 | > 100 | > 100 | – |
| O=C1/C(=C/c2ccc([N+](=O)[O-])cc2)Oc2cc(O)ccc21 | > 100 | – | – | 93 | > 100 | > 100 | 99.1 | 88.3 | > 100 | 69.1 | 96.3 | 51 | 46.1 |
| CC1=NN(c2nc(N)nc(CCl)n2)C(C)(C)C1 | 68 | 3.35 | > 92.7 | > 63.3 | > 100 | > 100 | > 100 | 35 | > 100 | 55.9 | 42.1 | 19.7 | > 69.7 |
| COC(=O)c1ccc(C)cc1C1CN=NC12Cc1c(C)cccc1C2=O (stereo not drawn) | > 100 | > 70.7 | > 100 | > 100 | > 100 | > 100 | > 90.8 | 81.4 | > 100 | > 100 | > 100 | > 100 | > 80.2 |
| COc1cc(C)cc2c1C(=O)C(NC(C)=O)=CC2=O | > 100 | – | > 100 | > 100 | > 100 | > 100 | > 100 | > 100 | > 100 | > 100 | > 100 | > 100 | > 100 |
| O=C(O)c1cc(-c2ccc3cc(O)c(O)cc3c2)ccc1O | > 12.5 | – | > 12.5 | > 12.5 | > 12.5 | > 12.5 | > 12.5 | > 12.5 | – | > 12.5 | – | > 12.5 | > 12.5 |
| COc1cccc(-c2nc(N)c(C#N)c3c2CCS(=O)(=O)c2ccc(C)cc2-3)c1 | > 100 | > 100 | > 49.1 | > 100 | > 100 | > 100 | > 100 | > 88 | – | > 100 | > 100 | > 100 | 5.14 |
| c1ccc2c(c1)n1c(N3CCCC3)[n+]3ccccc3c1c1c3cccc[n+]3c(N3CCCC3)n21 | 45.2 | > 100 | – | > 100 | > 100 | > 100 | > 100 | > 100 | > 100 | > 100 | > 100 | – | > 100 |
| COC(=O)C1=CCC[C@H]2[C@@]1(COC(C)=O)CC[C@@H](C)[C@]2(C)CC(=O)c1ccoc1 | > 50 | 24.7 | > 50 | > 50 | > 50 | > 50 | > 50 | > 50 | > 50 | 49.5 | > 50 | > 50 | – |
| CCOC(=O)C1Cc2ccc(C)cc2C1=O (stereo not drawn) | > 100 | > 100 | > 100 | > 100 | – | > 100 | > 100 | > 100 | – | > 100 | > 100 | > 100 | > 100 |
| COc1ccc(/C=C2\CC3C4CC=C5C[C@@H](N6CCCC6)CC[C@]5(C)C4CC[C@]3(C)[C@H]2O)cc1OC (stereo partly drawn) | 22.4 | 18.8 | 15.3 | 15.8 | 19.1 | 22.4 | 20.2 | 19.2 | 25.2 | 14.2 | 16.9 | 18.5 | – |
| O=C(O)CNc1ncc2c(n1)-c1ccccc1OC2 | > 100 | > 100 | > 100 | > 100 | > 100 | > 100 | – | > 100 | > 100 | > 100 | > 100 | > 100 | > 100 |
| CC(C)(C)c1cc(C(C)(C)C)c(SSc2c(C(C)(C)C)cc(C(C)(C)C)c(O)c2O)c(O)c1O | 24.7 | 23.6 | 31.5 | 22.2 | 25.5 | – | 35 | 70 | 47.2 | 20.7 | 35.7 | 18.6 | 10.4 |
| CC(C)CC1C(=O)OC(C)(C)OC1=O | > 100 | > 100 | > 100 | > 100 | > 100 | > 100 | > 100 | > 100 | > 100 | > 100 | > 100 | > 100 | – |
| CCOC(=O)c1sc2c(c1OC(=O)c1ccco1)c(=O)n(-c1ccccc1)c(=S)n2-c1ccccc1 | > 100 | 61.7 | > 100 | > 100 | > 100 | > 100 | 87.2 | 57 | 62 | > 100 | 55.4 | 2.71 | – |
| CC1(C)COC(c2cccc(C(=O)c3ccccc3)c2)=N1 | > 100 | > 100 | > 100 | > 100 | > 100 | > 100 | – | > 100 | – | > 100 | > 100 | > 100 | > 100 |
| CC(C)(CO)CNc1nc(N)nc(Cl)c1C=O | 42.2 | 33.8 | > 100 | > 100 | – | > 100 | > 100 | > 100 | 44.9 | 45 | > 100 | > 100 | 66.6 |
| COc1cccc(C2c3cc4c(cc3OC(N3CCCC3)C2c2ccccc2)OCO4)c1O (stereo not drawn) | 46.4 | 46.2 | 26.2 | – | 27.7 | 90.5 | – | 67.2 | – | 37.3 | 73.3 | 20.1 | 32.7 |
| COc1ccc2c(c1)C1Oc3ccccc3CC1CO2 (stereo not drawn) | > 100 | > 100 | > 100 | > 100 | > 100 | > 100 | > 100 | > 100 | 88.9 | > 100 | > 100 | 75.8 | – |

| Structure (SMILES) | TGI (SF-268 CNS) [µM] | TGI (LOX IMVI melanoma) [µM] | TGI (HT29 colon) [µM] | TGI (U251 CNS) [µM] | TGI (SNB-19 CNS) [µM] | TGI (DU-145 prostate) [µM] | TGI (NCI-H226 lung) [µM] | TGI (NCI/ADR-RES ovarian) [µM] | TGI (RXF 393 renal) [µM] | TGI (HCT-15 colon) [µM] | TGI (EKVX NSCLC) [µM] | TGI (UO-31 renal) [µM] | TGI (SR leukemia) [µM] |
| --- | --- | --- | --- | --- | --- | --- | --- | --- | --- | --- | --- | --- | --- |
| COc1ccccc1OC/C(N=Cc1cccnc1)=N/NC(=O)c1ccncc1 | > 100 | > 100 | > 100 | > 100 | > 100 | > 100 | > 100 | > 100 | > 100 | > 100 | > 100 | – | – |
| CCN1C(c2ccccc2)=CC(c2ccccc2)(C(Cl)(Cl)Cl)C=C1c1ccccc1 | 86.3 | 56.7 | 21.8 | > 100 | > 100 | > 100 | > 100 | > 100 | 72.2 | > 100 | 83 | > 100 | – |
| CCc1n[nH]c(=O)n1N | > 100 | > 100 | > 100 | > 100 | > 100 | > 100 | > 100 | > 100 | – | > 100 | > 100 | > 100 | > 100 |
| COc1cnc2oc3ccc(O)cc3c2c1-c1ccccc1 | > 100 | > 100 | > 100 | > 100 | – | > 100 | – | > 100 | > 100 | > 100 | > 100 | > 100 | – |
| COC(=O)/C=C1/OC(c2ccccc2)=C(Br)C1=O | > 100 | 43.3 | 50.6 | > 100 | > 100 | > 100 | > 100 | – | > 100 | > 100 | > 100 | > 100 | > 100 |
| CSc1cc(Cl)c(C(=O)Nc2ccccc2)cc1S(=O)(=O)n1cc[nH]c1=O | > 100 | > 100 | > 100 | > 100 | > 100 | > 100 | – | > 100 | > 100 | > 100 | > 100 | > 100 | > 100 |
| CCC(=O)NC(NNS(=O)(=O)c1ccc(C)cc1)(C(F)(F)F)C(F)(F)F | > 100 | > 100 | – | > 10 | > 100 | > 100 | > 100 | 85.2 | 82.9 | > 100 | > 100 | > 100 | > 100 |
| Cc1ccc(C(=O)c2[nH]c(NCc3ccccc3)c(C(=S)Nc3ccccc3)c2N)cc1 | 28.8 | 3.97 | 10.5 | 15.6 | 29.1 | 27 | 32.3 | 8.51 | 20.7 | 4.33 | 26.5 | 18.2 | – |
| CCOC(=O)/C(=C\n1c(=O)sc2ccccc21)C(=O)c1ccccc1 | > 100 | > 100 | > 100 | > 100 | – | > 100 | > 100 | > 100 | > 100 | > 100 | > 100 | > 100 | > 100 |
| CC1(C)C2CCC1(C)C(NC(=O)COCCOCC(N)=O)C2 (stereo not drawn) | > 100 | – | > 100 | > 100 | > 100 | > 100 | > 100 | – | > 100 | – | > 100 | > 100 | 85.1 |
| O=C1CSc2ccnc(=O)n21 | > 100 | – | – | > 100 | > 100 | > 100 | – | – | > 100 | – | > 100 | > 100 | > 100 |
| Cc1cc(O)c(C(O)c2ccccn2)cc1O (stereo not drawn) | > 100 | 30.8 | 44 | > 100 | > 100 | > 100 | – | 72.6 | 30.2 | 34.1 | 36.5 | 33.5 | 10.2 |
| COc1ccccc1NC(=S)Nc1ccccn1 | > 100 | > 100 | > 100 | > 100 | > 100 | – | > 100 | > 100 | > 100 | > 100 | > 100 | > 100 | > 100 |
| COC(=O)c1c(C)c2c(c(C)c1O)OC(=O)c1c(C)cc(O)c(C=O)c1O2 | > 100 | – | > 100 | > 100 | > 100 | > 100 | > 100 | > 100 | > 100 | > 100 | > 100 | – | > 100 |
| CC(=O)O[C@H]1[C@@H](N2CCCCC2)C[C@H]2[C@@H]3CC=C4C[C@@H](N5CCCC5)CC[C@]4(C)[C@H]3CC[C@@]21C | > 100 | > 100 | > 100 | > 100 | > 100 | – | > 100 | > 100 | > 100 | > 100 | > 100 | > 100 | 8.96 |
| COc1cc2c(/C=C3/C(=O)Nc4cc(C)c(O)cc43)c(Cl)[nH]c2cc1C | 31.9 | 35.5 | 5.31 | 15.7 | 14.8 | 10.5 | 23.6 | 12.8 | 7.1 | 13.5 | – | 17.7 | 2.05 |
| C[C@]12CC/C(=N\OCCN3CCCC3)C=C1CCC1C2CC[C@@]2(C)C1CC[C@]2(C)O (stereo partly drawn) | 31.9 | 15.1 | 5.69 | 20.2 | 49 | 39.5 | 11.8 | 15.4 | 75.5 | 15 | 34 | 24.4 | – |
| CCc1cccc(CC)c1Nc1nc(-c2ccccc2-c2ccccc2)cs1 | > 100 | > 100 | – | > 100 | > 100 | > 100 | – | – | > 100 | > 100 | > 100 | > 100 | > 100 |
| N#Cc1ccc(N=NN2CCCC2)cc1 | > 100 | > 100 | – | > 100 | > 100 | > 100 | > 100 | > 100 | > 100 | > 100 | > 100 | > 100 | > 100 |
